Test results as given in PubChem BioAssay (NCI).
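Grown in 96-well plates, cells were treated for 48 hours with each compound at five concentrations. Insufficient inhibition: endpoint recorded as highest concentration tested. TGI: concentration producing complete growth inhibition.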

Assays:
Assay in all cases: NCI anticancer screen, dose series, 48 h
786-0 renal = tested on: 786-0 renal
A498 renal = tested on: A498 renal
HCC-2998 colon = tested on: HCC-2998 colon
HCT-116 colon = tested on: HCT-116 colon
HOP-62 NSCLC = tested on: HOP-62 NSCLC
HOP-92 NSCLC = tested on: HOP-92 NSCLC
IGROV1 ovarian = tested on: IGROV1 ovarian
KM12 colon = tested on: KM12 colon
LOX IMVI melanoma = tested on: LOX IMVI melanoma
NCI-H226 lung = tested on: NCI-H226 lung
OVCAR-3 ovarian = tested on: OVCAR-3 ovarian
RPMI-8226 leukemia = tested on: RPMI-8226 leukemia
SK-MEL-28 melanoma = tested on: SK-MEL-28 melanoma
SN12C renal = tested on: SN12C renal
SNB-19 CNS = tested on: SNB-19 CNS
SW-620 colon = tested on: SW-620 colon
UO-31 renal = tested on: UO-31 renal

Compound | TGI (786-0 renal) | TGI (A498 renal) | TGI (HCC-2998 colon) | TGI (HCT-116 colon) | TGI (HOP-62 NSCLC) | TGI (HOP-92 NSCLC) | TGI (IGROV1 ovarian) | TGI (KM12 colon) | TGI (LOX IMVI melanoma) | TGI (NCI-H226 lung) | TGI (OVCAR-3 ovarian) | TGI (RPMI-8226 leukemia) | TGI (SK-MEL-28 melanoma) | TGI (SN12C renal) | TGI (SNB-19 CNS) | TGI (SW-620 colon) | TGI (UO-31 renal)
O=C(/C=C/c1ccccc1)CCN1CCCCC1 | 44.4 µM | > 100 µM | > 100 µM | 32.1 µM | > 100 µM | > 100 µM | > 100 µM | > 100 µM | 37.6 µM | > 100 µM | > 100 µM | 66.1 µM | 58.5 µM | 48.8 µM | > 100 µM | 41.6 µM | > 100 µM
CC(=O)NC(CCCNC(=O)OCc1ccccc1)C(=O)NCc1ccccc1 (stereo not given) | > 100 µM | > 100 µM | > 100 µM | > 100 µM | > 100 µM | > 100 µM | > 100 µM | > 100 µM | > 100 µM | > 100 µM | > 100 µM | > 100 µM | > 100 µM | > 100 µM | > 100 µM | > 100 µM | > 100 µM
O=c1oc2ccccc2c(-c2ccc(O)cc2)c1Oc1ccccc1 | 66.4 µM | 23.5 µM | 19.8 µM | > 87.9 µM | > 100 µM | 26.6 µM | 18.6 µM | > 68.5 µM | > 31.6 µM | > 75.7 µM | > 63.3 µM | > 100 µM | > 66.1 µM | 55.3 µM | 50.6 µM | > 100 µM | 32.3 µM
O=c1c2cc(Br)ccc2nc(CNc2ccccc2)n1-c1ccccc1 | 28.4 µM | 93.4 µM | 33.7 µM | 33.9 µM | > 60.6 µM | 37.8 µM | 36.8 µM | > 100 µM | 19.6 µM | 43.9 µM | 48.5 µM | > 54.9 µM | > 65.6 µM | 29 µM | > 72.1 µM | 27.5 µM | > 57.8 µM
Nc1ccc2c(=S)c3ccccc3[nH]c2c1 | > 100 µM | > 100 µM | > 100 µM | > 100 µM | > 73 µM | 98.9 µM | > 100 µM | > 100 µM | > 100 µM | > 100 µM | > 100 µM | > 100 µM | > 100 µM | > 100 µM | > 100 µM | > 100 µM | > 100 µM
COC(=O)c1ccc(CCC2=CC(=O)C=CC2=O)cc1 | 5.58 µM | 32.9 µM | 30.8 µM | 25.9 µM | 39.3 µM | 25.1 µM | 30.2 µM | 27 µM | 24.2 µM | 48.3 µM | 23.2 µM | 5.71 µM | 26 µM | > 55.9 µM | > 56.2 µM | 26.2 µM | 19.9 µM
Cc1nc2ccc(N=Nc3c(C)noc3C)cc2[nH]1 | > 100 µM | 34.8 µM | > 100 µM | 91.4 µM | > 100 µM | 60.2 µM | 34.3 µM | > 100 µM | 39.2 µM | > 100 µM | 84.2 µM | 92.4 µM | > 100 µM | > 100 µM | > 100 µM | > 100 µM | > 100 µM
CCOC(=O)c1cn(-c2ccc([N+](=O)[O-])cc2)c(=S)n2c1nc1ccccc12 | > 100 µM | 87.7 µM | > 100 µM | > 100 µM | > 100 µM | 57.1 µM | > 100 µM | > 100 µM | > 100 µM | > 100 µM | > 100 µM | > 100 µM | > 100 µM | > 100 µM | > 100 µM | > 100 µM | 4.64 µM
CCCN1C(=O)CN(S(=O)(=O)c2ccc(Cl)cc2)C1=O | > 100 µM | > 100 µM | > 100 µM | > 100 µM | > 100 µM | > 100 µM | > 100 µM | > 100 µM | > 100 µM | > 100 µM | > 100 µM | > 100 µM | > 100 µM | > 100 µM | > 100 µM | > 100 µM | > 100 µM
O[C@@H]1[C@H](OC2c3ccccc3-c3ccccc32)[C@H](OCc2ccccc2)[C@@H]2OC[C@H]1O2 | 42.1 µM | > 100 µM | > 100 µM | > 100 µM | 80 µM | > 100 µM | > 100 µM | > 100 µM | > 100 µM | > 100 µM | > 100 µM | > 100 µM | > 100 µM | > 100 µM | > 100 µM | > 100 µM | > 100 µM
